Measured values published in patent US9919941B2, “Multiple uses of amine salts for industrial water treatment” (AMSA, Inc., priority 2012, dated 2018).
Several values for one entry are separate records, joined by “and”; a condition that tells them apart may be missing. Equal entries are not always repeated. Where two headings read alike, the source gives them in different places.

Columns and labels:
[1] = system: sessile microbial population (biofilm on stainless steel washers); assay: time-kill biocidal efficacy, hybrid planktonic-sessile procedure: sessile population; type: cell-based, natural mixed aerobic microbial population; conditions: 10 ppm Compound B, others equimolar; for reduction in the total sessile population: 110 minutes; for Sessile, 20-24 h, % of Control / Sessile, 48-54 h, % of Control / Sessile, 120 h, % of Control / Sessile CFU/, 20-24 h / Sessile CFU/, 48-54 h / Sessile CFU/, 120 h / Sessile CFU/, Total / Sessile, Total, % of Control / activity at 10 ppm: exposure 110 minutes; for Sessile CFU/, 20-24 h / Sessile CFU/, 48-54 h / Sessile CFU/, 120 h / Sessile CFU/, Total: per washer
Method: An experiment was conducted to assess biocidal effectiveness of Compounds A and B and their respective Compounds 13 and 1 anion analogs. Time-kill tests were conducted using a hybrid planktonic-sessile procedure which allowed assessment of biocidal effectiveness against both planktonic and sessile microbial populations. A natural mixed aerobic microbial population in samples collected from an operating cooling tower was used as inoculum for the test. Biocide test concentration for Compound B was 10 ppm. All other products were tested at the equivalent molar concentration. Biocide exposure was 110 minutes. The following procedure was used which generally followed the biocidal testing method of Walter, R. W. and Cooke, L. […] A New Multifunctional Biocide Which Enhances Corrosion Inhibition,” NACE Paper 410, 1997. A water sample was collected from a cooling tower that contained a natural mixed population of microorganisms that grew at different rates when plated on Petrifilm. The populations of cells that grew on Petrifilm in 20-24 hours, 48-54 hours and at 120 hours were treated as separate populations. […] The washers were allowed seven days to develop a biofilm on their surface. Prior to chemical treatment, 10 mL aliquots of the CTW were removed from the beaker and placed into individual exposure test tubes along with a single washer. Test compounds were then added to the individual tubes at equimolar concentrations. All exposure tests including untreated controls were conducted in triplicate (i.e., three washers in separate exposure tubes). After addition of the test compound, the tube was briefly mixed by mild vortexing and again occasionally throughout the exposure time. Washer sonication to release organisms not released by the chemical treatment: […], the washer was removed from the tube, dipped 10 times in Letheen broth, then placed into a 9 mL tube of sterile Butterfields buffer, and sonicated for 8 minutes. Determination of cell population removed from washers by sonication: After the tube with washer was sonicated, a 1 mL aliquot was plated onto petrifilm and a serial dilution in Butterfields Buffer was performed with each dilution being plated to petrifilm. Determination of colony forming units (CFU) at different incubation times: After plating the various solutions on Petrifilm, the films were incubated at 36° C. for the first 24 hours. At 20 hours the […] read and CFU were recorded. This population was defined as a fast growing population. The […] then incubated for additional time either at 36° C. or room temperature and read at 54 hours. This second population is in addition to the fast growth rate population and was defined as moderate growth rate organisms. Incubation was continued and the […] again after 120 hours. This third population was also treated as separate from the fast and moderate growth rate populations and is referred to as the slow growth rate population. As noted above, each compound was evaluated in triplicate with three separate washers and the results were averaged. Average CFU/mL values were used to calculate total planktonic test population (CFU/10 mL) and total sessile test population (CFU/washer) in each test system.

[2] = copper corrosion inhibition, ASTM G31-72 coupon weight loss
Method: (§1) Corrosion inhibition studies of various compounds of Formula (I) were conducted according to ASTM method G31-72 (2004). The following is the general test method.
(§2) Aqueous solutions of the test compound (900 mL) were prepared with city water for mild steel corrosion studies or a dilute sea salt solution (1000 ppm in deionized water) for copper corrosion studies. The solutions were magnetically stirred at a constant rate in a 1 L beaker and three coupons of either mild steel or copper were suspended in each beaker. After 5 days (steel) or 7 days (copper), the coupons were removed and cleaned according to ASTM method G1-03. Average weight loss was determined for each set of three coupons and then converted to corrosion rate in terms of mils per year (mpy).
The first test of copper corrosion inhibition compared Compound A with Compound 13 (from Table 1), 2-hydroxypropane-1,2,3-tricarboxylic acid, and a commercial inhibitor, Na-TAI.

[3] = calcium carbonate scale inhibition (conductometric titration, supersaturation ratio Sr)
Method: To a 100 mL beaker were added 60 mL of HPLC-grade water and 3 mL of 0.1 M calcium chloride. An appropriate amount (0.5-4 mL) of an aqueous solution of the inhibitor compound of Formula (I) to be tested was then added. The solution was magnetically stirred at a constant speed for all experiments. The sample was then titrated with 0.1 M sodium carbonate. After addition of each 0.2 mL aliquot of sodium carbonate titrant, the solution was mixed for 1 min and then the conductivity of the solution measured.
As titrant is added the conductivity increases in a linear fashion. When the supersaturation point is reached, the conductivity decreases and precipitation begins. This is considered the endpoint of the titration. The resulting titration endpoint volumes are used to calculate a relative supersaturation ratio (Sr). This is the ratio of the supersaturation of calcium carbonate in the presence of the compound of Formula (I) being tested to the value of the supersaturation of water without inhibitor (distilled water plus 3 mL of 0.1 M calcium chloride). Thus, compounds with Sr>1 are displaying scale inhibition.
The scale inhibition performance of various compounds of Formula (I) and comparative compounds were compared at the same molar concentration. These compounds were tested at 60 μM concentration except where noted otherwise. Compound numbers are from Table 1.

[4] = mild steel corrosion inhibition, ASTM G31-72 coupon weight loss
Method: as §1, §2
These tests compare the corrosion inhibition of compounds of Formula (I), namely from Table 1, in the first set of comparisons, Compound A with Compound 13, and Compound B with Compound 1, and with 2-hydroxypropane-1,2,3-tricarboxylic acid. Thus five samples were tested relative to a blank and a standard, (1-hydroxyethan-1,1-diyl)bis(phosphonic acid), after 5 days at 26 μM concentrations. […] Concentrations were 26 μM.
Additional mild steel corrosion tests were performed at 130 μM concentration of compounds of Formula (I) and comparative compounds for 5 days. The next test compared the corrosion inhibition of Compound 8 with 2,3-dihydroxybutanedioic acid and Compound B, and Compound 4 with (1-hydroxyethan-1,1-diyl)bis(phosphonic acid) and Compound B. Also included was Compound 1 for reference. Concentrations in this set were 130 μM.

[5] = 130 μM, Table 5 (blank 12.5 mpy)
[6] = 5 days, 130 μM, Table 4 (blank 24 mpy)

Row | Structure (SMILES) | reduction in the total sessile population [1] [%] | Sessile, 20-24 h, % of Control ([1]; 20-24 h incubation) [%] | Sessile, 48-54 h, % of Control ([1]; 48-54 h incubation) [%] | Sessile, 120 h, % of Control ([1]; 120 h incubation) [%] | Sessile CFU/, 20-24 h ([1]; 20-24 h incubation) [CFU/] | Sessile CFU/, 48-54 h ([1]; 48-54 h incubation) | Sessile CFU/, 120 h ([1]; 120 h incubation) | Sessile CFU/, Total ([1]; total population) | Sessile, Total, % of Control ([1]; total population) [%] | Inhibition relative to blank ([2]; 42 μM, Table 7) [%] | Sr (supersaturation ratio) ([3]; 60 μM) | Inhibition relative to blank [4, 5] [%] | Inhibition relative to blank [4, 6] [%] | further results
1 | CC(=O)O.CCCCCCCCCCOCCCN [Compound B, ethanoic acid salt of aminopropyloxydecane] | 80 | 92.8 | 6.0 | 37.7 | 207 | 49,200 CFU/ | 258,000 CFU/ | 307,000 CFU/ | 20.3 | 32 | 1.0 | −1 | −1 | scale inhibition (in words) ([3]; about 60 μM): no scale inhibition; Inhibition relative to blank ([4]; 5 days, 26 μM, Table 3, 26 µM): 1.6% and 2%
2 | CCCCCCCCCCSCCN.Cl [Compound A, 2-(decylthio)ethanamine hydrochloride] | 96 | – | – | – | 405 | 360 CFU/ | 60,000 CFU/ | 60,800 CFU/ | – | – | 1.0 | – | – | activity at 10 ppm ([1]; 20-24 h incubation, read-out: Sessile, 20-24 h, % of Control): 182%; activity at 10 ppm ([1]; 48-54 h incubation, read-out: Sessile, 48-54 h, % of Control): 0.04%; activity at 10 ppm ([1]; 110 min, total population, read-out: Sessile, Total, % of Control): 4%; activity at 10 ppm ([1]; 120 h incubation, read-out: Sessile, 120 h, % of Control): 8.8%; Inhibition relative to blank ([2]; 7 days, 17 μM, Table 6): 41%; Sr (supersaturation ratio) ([3]; 64 μM): 1.2; Inhibition relative to blank ([4]; 5 days, 26 μM, Table 3, hydrochloride): 3.3% and 3%
3 | CCCCCCCCCCOCCCN.O=C(O)CC(O)(CC(=O)O)C(=O)O [Compound 1, 2-hydroxypropane-1,2,3-tricarboxylic acid salt of aminopropyloxydecane] | – | 104.9 | 4.4 | 38.7 | 234 | 36,000 CFU/ | 265,000 CFU/ | 301,000 CFU/ | 19.9 | 54 | 1.4 | 87 | 88 | Inhibition relative to blank ([4]; 5 days, 26 μM, Table 3): 60%
